Measured values reported in patent US5698547A, “Cephalosporin antibiotics” (Microcide Pharmaceuticals, Inc., priority 1995, dated 1997).
Values after ≈ are worked out from the molar mass of the structure shown. Where a name gives a salt, the structure may show the parent alone.

Tested on: S. aureus Col (Meth^R) (lac^-)
Assay: MIC by agar dilution, S. aureus Col (Meth^R) (lac^-)
Format: cell-based
Details: Staphylococcus aureus; agar dilution; S. aureus Col (Meth^R) (lac^-); read-out: MIC
Procedure, shortened: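 Log-phase isolates were spot-inoculated at about 10^4 cfu onto Mueller-Hinton agar carrying duplicate two-fold compound levels, 128 μg/mL to ≤0.25 μg/mL, following NCCLS (1991). Plates were read after 16-20 h at 35°-36° C. The lowest growth-inhibiting concentration gave the MIC (μg/ml).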

First: O=C(Cc1ccccc1)N[C@@H]1C(=O)N2C(C(=O)O)=C(Sc3ccnn3-c3ccc(F)cc3)CS[C@H]12 [Cmpd 123, (7R)-7-[(Phenylacetyl)amino]-3-(1-N-(4-fluorophenyl)pyrazol-5-ylthio)-3-cephem-4-carboxylic acid]
Second: COc1cccc(-n2nccc2SC2=C(C(=O)O)N3C(=O)[C@@H](NC(=O)Cc4ccccc4)[C@H]3SC2)c1 [Cmpd 117, (7R)-7-[(Phenylacetyl)amino]-3-(1-N-(3-methoxyphenyl)pyrazol-5-ylthio)-3-cephem-4-carboxylic acid]
The MIC of the first is 2-fold lower: 4 µg/mL (≈ 7.83 µM) for the first, 8 µg/mL (≈ 15.3 µM) for the second.

First: N=C(NCCN1CCOCC1)SCc1ccc(SC2=C(C(=O)O)N3C(=O)[C@@H](NC(=O)Cc4ccccc4)[C@H]3SC2)c(I)c1 [Cmpd 61, (7R)-7-[(Phenylacetyl)amino]-3-(4-(N-morpholinoethyl)isothiouroniummethyl-2-iodophenylthio)-3-cephem-4-carboxylate, inner salt]
Second: N=C(N)SCc1ccccc1SC1=C(C(=O)O)N2C(=O)[C@@H](NC(=O)Cc3ccccc3)[C@H]2SC1 [Cmpd 64, (7R)-7-[(Phenylacetyl)amino]-3-(2-isothiouroniummethylphenylthio)-3-cephem-4-carboxylate, inner salt]
The MIC of the first is 8-fold higher: 4 µg/mL for the first, 0.5 µg/mL for the second.

Going from COc1ccc(Cc2ccc(-c3ccccc3SC3=C(C(=O)O)N4C(=O)[C@@H](NC(=O)Cc5ccccc5)[C@H]4SC3)s2)cc1 [Cmpd 43, (7R)-7-[(Phenylacetyl)amino]-3-(2-(2-(4-methoxyphenylmethyl)thien-5-yl)phenylthio)-3-cephem-4-carboxylic acid] to O=C(Cc1ccccc1)N[C@@H]1C(=O)N2C(C(=O)O)=C(Sc3ccccc3-c3cccs3)CS[C@H]12 [Cmpd 37, (7R)-7-[(Phenylacetyl)amino]-3-(2-(2-thienyl)phenylthio)-3-cephem-4-carboxylic acid], the MIC falls from 4 µg/mL (≈ 6.36 µM) to 2 µg/mL (≈ 3.93 µM) (2-fold).

Going from Cc1nnc(SCc2ccccc2SC2=C(C(=O)O)N3C(=O)[C@@H](NC(=O)Cc4ccccc4)[C@H]3SC2)s1 [Cmpd 77] to Cn1nnnc1SCc1ccccc1SC1=C(C(=O)O)N2C(=O)[C@@H](NC(=O)Cc3ccccc3)[C@H]2SC1 [Cmpd 71], the MIC rises from 8 µg/mL (≈ 14 µM) to 16 µg/mL (≈ 28.8 µM) (2-fold).

O=C(Cc1cccs1)N[C@@H]1C(=O)N2C(C(=O)O)=C(Sc3ccnn3-c3ccccc3)CS[C@H]12 [Cmpd 116, (7R)-7-[(2-thienylacetyl)amino]-3-(1-N-phenylpyrazol-5-ylthio)-3-cephem-4-carboxylic acid] and O=C(Cc1ccccc1)N[C@@H]1C(=O)N2C(C(=O)O)=C(Sc3ccnn3-c3cccc([N+](=O)[O-])c3)CS[C@H]12 [Cmpd 113, (7R)-7-[(Phenylacetyl)amino]-3-(1-N-(3-nitrophenyl)pyrazol-5-ylthio)-3-cephem-4-carboxylic acid] are the same in MIC: 4 µg/mL (≈ 8.02 µM) for the first, 4 µg/mL (≈ 7.44 µM) for the second.

O=C(Cc1ccccc1)N[C@@H]1C(=O)N2C(C(=O)O)=C(Sc3ccccc3CSC3=NCCN3)CS[C@H]12 [Cmpd 72] and O=C(Cc1ccccc1)N[C@@H]1C(=O)N2C(C(=O)O)=C(Sc3ccccc3CSc3ccncc3)CS[C@H]12 [Cmpd 70] are the same in MIC: 4 µg/mL (≈ 7.4 µM) for the first, 4 µg/mL (≈ 7.28 µM) for the second.

First: NC(=NC1CC1)SCc1ccccc1SC1=C(C(=O)O)N2C(=O)[C@@H](NC(=O)Cc3ccccc3)[C@H]2SC1 [Cmpd 79, (7R)-7-[(Phenylacetyl)amino]-3-(2-N-cyclopropylisothiouroniummethylphenylthio)-3-cephem-4-carboxylate, inner salt]
Second: CCN=C(NCC)SCc1ccccc1SC1=C(C(=O)O)N2C(=O)[C@@H](NC(=O)Cc3ccccc3)[C@H]2SC1 [Cmpd 74, (7R)-7-[(Phenylacetyl)amino]-3-(2-N,N'-diethylisothiouroniummethylphenylthio)-3-cephem-4-carboxylate, inner salt]
The MIC of the first is 4-fold lower: 4 µg/mL for the first, 16 µg/mL for the second.

O=C(Cc1ccccc1)N[C@@H]1C(=O)N2C(C(=O)O)=C(Sc3snnc3-c3ccccc3)CS[C@H]12 [Cmpd 93, (7R)-7-[(Phenylacetyl)amino]-3-(4-phenyl-1,2,3-thiadiazol-5-ylthio)-3-cephem-4-carboxylic acid] and O=C(Cc1ccccc1)N[C@@H]1C(=O)N2C(C(=O)O)=C(Sc3ccccc3Br)CS[C@H]12 [Cmpd 4, (7R)-7-[(Phenylacetyl)amino]-3-(o-bromophenylthio)-3-cephem-4-carboxylic acid] cannot be ordered by MIC: 2 µg/mL (≈ 3.92 µM) for the first, 1 to 2 µg/mL (≈ 1.98 to 3.96 µM) for the second.

First: N#CCC(=O)N[C@@H]1C(=O)N2C(C(=O)O)=C(Sc3ccc(CSC(=N)N)cc3I)CS[C@H]12 [Cmpd 66, (7R)-7-[(Cyanoacetyl)amino]-3-(4-isothiouroniummethyl-2-iodophenylthio)-3-cephem-4-carboxylate, inner salt]
Second: CSCC(=O)N[C@@H]1C(=O)N2C(C(=O)O)=C(Sc3ccccc3CSC(=N)NC(=N)N)CS[C@H]12 [Cmpd 126, (7R)-7-[(methylthioacetyl)amino]-3-(2-(N-amidino)isothiouroniummethylphenylthio)-3-cephem-4-carboxylate, inner salt]
The MIC of the first is 4-fold lower: 2 µg/mL for the first, 8 µg/mL for the second.

Going from O=C(Cc1cccs1)N[C@@H]1C(=O)N2C(C(=O)O)=C(Sc3cc(Cl)ccc3Cl)CS[C@H]12 [Cmpd 26, (7R)-7-[(2-Thienylacetyl)amino]-3-(2,5-dichlorophenylthio)-3-cephem-4-carboxylic acid] to O=C(COc1ccc(Cl)cc1)N[C@@H]1C(=O)N2C(C(=O)O)=C(Sc3cc(Cl)ccc3Cl)CS[C@H]12 [Cmpd 31, (7R)-7-[(p-Chlorophenoxyacetyl)amino]-3-(2,5-dichlorophenylthio)-3-cephem-4-carboxylic acid], the MIC rises from 0.5 µg/mL (≈ 0.997 µM) to 1 µg/mL (≈ 1.83 µM) (2-fold).

O=C(Cc1ccccc1)N[C@@H]1C(=O)N2C(C(=O)O)=C(Sc3ccc(-c4ccccc4)cc3F)CS[C@H]12 [Cmpd 13, (7R)-7-[(Phenylacetyl)amino]-3-(2-fluoro-4-biphenylthio)-3-cephem-4-carboxylic acid] and C[n+]1cccc(SC2=C(C(=O)[O-])N3C(=O)[C@@H](NC(=O)Cc4ccccc4)[C@H]3SC2)c1-c1ccccc1 [Cmpd 82, (7R)-7-[(Phenylacetyl)amino]-3-(2-phenyl-N-methylpyridin-3-iumthio)-3-cephem-4-carboxylate] are the same in MIC: 4 µg/mL (≈ 7.68 µM) for the first, 4 µg/mL (≈ 7.73 µM) for the second.

First: COC(=O)c1ccccc1SC1=C(C(=O)O)N2C(=O)[C@@H](NC(=O)Cc3ccccc3)[C@H]2SC1 [Cmpd 19, (7R)-7-[(Phenylacetyl)amino]-3-(o-carbomethoxyphenylthio)-3-cephem-4-carboxylic acid]
Second: CC(C)Oc1ccccc1SC1=C(C(=O)O)N2C(=O)[C@@H](NC(=O)Cc3ccccc3)[C@H]2SC1 [Cmpd 47, (7R)-7-[(Phenylacetyl)amino]-3-(2-isopropyloxyphenylthio)-3-cephem-4-carboxylic acid]
The MIC of the first is 4-fold higher: 4 µg/mL (≈ 8.25 µM) for the first, 1 µg/mL (≈ 2.06 µM) for the second.

Cn1cc[n+](Cc2ccc(-c3ccccc3SC3=C(C(=O)[O-])N4C(=O)[C@@H](NC(=O)Cc5ccccc5)[C@H]4SC3)s2)c1 [Cmpd 45, (7R)-7-[(Phenylacetyl)amino]-3-(2-(2-(N-methylimidazoliummethyl)thien-5-yl)phenylthio)-3-cephem-4-carboxylic acid] and O=C(Cc1ccccc1)N[C@@H]1C(=O)N2C(C(=O)O)=C(Sc3ccccc3-c3cnco3)CS[C@H]12 [Cmpd 95, (7R)-7-[(Phenylacetyl)amino]-3-(2-oxazol-5-ylphenylthio)-3-cephem-4-carboxylic acid] are the same in MIC: 4 µg/mL (≈ 6.64 µM) for the first, 4 µg/mL (≈ 8.1 µM) for the second.

For O=C(Cc1ccccc1)N[C@@H]1C(=O)N2C(C(=O)O)=C(Sc3cc(F)ccc3Br)CS[C@H]12 [Cmpd 33, (7R)-7-[(Phenylacetyl)amino]-3-(2-bromo-5-fluorophenylthio)-3-cephem-4-carboxylic acid], the MIC was 1 µg/mL (≈ 1.91 µM).
